Measurements: paper PMC9238736 (Journal of the American Heart Association: Cardiovascular …, 2022)

How the values were obtained:
[1] = molecular target: T1, hKir2.1 (Homo sapiens, UniProt P63252); assay: whole-cell patch clamp, hyperpolarizing ramp, […] °C
T1 sequence (P63252 1-427): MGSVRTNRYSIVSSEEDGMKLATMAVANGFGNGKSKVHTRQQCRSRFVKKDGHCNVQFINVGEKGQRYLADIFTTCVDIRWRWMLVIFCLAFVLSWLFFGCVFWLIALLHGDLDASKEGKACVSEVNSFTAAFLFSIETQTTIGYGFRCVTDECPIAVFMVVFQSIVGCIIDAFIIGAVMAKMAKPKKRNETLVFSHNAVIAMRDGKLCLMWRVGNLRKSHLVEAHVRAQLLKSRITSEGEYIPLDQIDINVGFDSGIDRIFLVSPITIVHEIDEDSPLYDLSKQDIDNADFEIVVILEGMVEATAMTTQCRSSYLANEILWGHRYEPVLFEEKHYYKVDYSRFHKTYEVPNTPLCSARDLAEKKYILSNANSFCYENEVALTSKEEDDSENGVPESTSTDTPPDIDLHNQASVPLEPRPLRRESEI

[2] = molecular target: human ether‐à‐go‐go–related gene (hERG) channel (Homo sapiens, UniProt Q12809)
[3] = molecular target: T2, hKir2.2 (Homo sapiens, UniProt Q14500); assay: whole-cell patch clamp, hyperpolarizing ramp; assay type: cell-based
T2 sequence (Q14500 1-433): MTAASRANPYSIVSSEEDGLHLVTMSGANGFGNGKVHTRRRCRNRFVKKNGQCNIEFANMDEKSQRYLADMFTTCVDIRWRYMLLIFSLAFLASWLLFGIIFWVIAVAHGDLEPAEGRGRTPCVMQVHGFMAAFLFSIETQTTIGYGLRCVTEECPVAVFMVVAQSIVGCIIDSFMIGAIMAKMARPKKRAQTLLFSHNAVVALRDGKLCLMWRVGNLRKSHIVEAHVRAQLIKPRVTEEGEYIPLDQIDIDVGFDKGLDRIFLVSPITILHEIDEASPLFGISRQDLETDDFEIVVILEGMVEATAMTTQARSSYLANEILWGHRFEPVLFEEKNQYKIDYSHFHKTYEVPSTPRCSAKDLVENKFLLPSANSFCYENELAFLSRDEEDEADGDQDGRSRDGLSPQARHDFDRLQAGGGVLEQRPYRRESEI

Sequence of human ether‐à‐go‐go–related gene (hERG) channel (Q12809 whole entry): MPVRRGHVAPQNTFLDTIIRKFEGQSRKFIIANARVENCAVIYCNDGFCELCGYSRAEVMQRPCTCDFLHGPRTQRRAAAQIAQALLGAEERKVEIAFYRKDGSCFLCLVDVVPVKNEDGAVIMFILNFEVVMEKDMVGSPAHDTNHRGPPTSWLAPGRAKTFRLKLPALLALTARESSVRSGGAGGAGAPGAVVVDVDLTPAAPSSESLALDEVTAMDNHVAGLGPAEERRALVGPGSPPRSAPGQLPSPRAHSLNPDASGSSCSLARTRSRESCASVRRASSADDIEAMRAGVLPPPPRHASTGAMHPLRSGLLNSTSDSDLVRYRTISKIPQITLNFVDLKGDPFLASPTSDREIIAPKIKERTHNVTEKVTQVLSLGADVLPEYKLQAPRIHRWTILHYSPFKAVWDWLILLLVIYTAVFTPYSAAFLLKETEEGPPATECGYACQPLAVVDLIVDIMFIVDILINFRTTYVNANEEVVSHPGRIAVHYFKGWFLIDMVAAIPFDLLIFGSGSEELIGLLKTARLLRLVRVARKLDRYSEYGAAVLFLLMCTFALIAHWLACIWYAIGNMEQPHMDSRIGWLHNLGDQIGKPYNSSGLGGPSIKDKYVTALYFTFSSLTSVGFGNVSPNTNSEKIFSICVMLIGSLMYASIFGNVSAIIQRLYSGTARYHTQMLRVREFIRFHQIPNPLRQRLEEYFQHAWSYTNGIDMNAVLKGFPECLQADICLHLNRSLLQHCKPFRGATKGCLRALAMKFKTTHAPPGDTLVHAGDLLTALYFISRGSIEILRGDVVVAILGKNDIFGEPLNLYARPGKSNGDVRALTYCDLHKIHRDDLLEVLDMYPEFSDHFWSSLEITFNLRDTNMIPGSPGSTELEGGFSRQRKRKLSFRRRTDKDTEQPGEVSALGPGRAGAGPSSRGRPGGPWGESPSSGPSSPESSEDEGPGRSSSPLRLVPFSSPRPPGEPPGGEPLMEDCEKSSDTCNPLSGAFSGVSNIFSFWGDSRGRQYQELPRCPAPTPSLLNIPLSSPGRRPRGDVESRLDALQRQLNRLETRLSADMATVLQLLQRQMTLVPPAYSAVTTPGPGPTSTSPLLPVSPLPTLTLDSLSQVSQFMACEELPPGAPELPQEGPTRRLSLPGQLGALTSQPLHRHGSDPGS

SMILES: CCC(=O)C(CC(C)N(C)C)(c1ccccc1)c1ccccc1 (racemic) [methadone]
- IC50 [1]: 2900 nM
- IC50 [2]: 2900 nM

SMILES: CN(C)C(=O)C(CCN1CCC(O)(c2ccc(Cl)cc2)CC1)(c1ccccc1)c1ccccc1 [loperamide]
- IC50 [3]: 1200 nM
